Laboratory results taken from US4173654A, “Novel fluorohydrocarbons” (California Institute of Technology, priority 1977, dated 1979).
Read-outs that look alike come from different tables or passages of the source.

Legend:
[1] = Literature values or other data (D, V, δ, BP); format: physicochemical
[2] = Oxygen solubility measured by gas chromatograph having a thermal conductivity detector; format: physicochemical; conditions: 25° C., 760 mm O2 pressure
Description: Oxygen solubilities were measured at 25° C. and 760 mm O2 pressure for representative hybrid, fluoroolefin and prior art compounds by means of a gas chromatograph having a thermal conductivity detector and calculated from molar volume and ΔH(vap) by the method of Fedors (Polymer, Engr. Sci. 14 147 (1974). Good agreement was obtained as shown in the following table: […]

[3] = 3M data; cited from earlier work

| SMILES | BP ([1]; 36mm) | D ([1]; unit not given) | V ([1]; unit not given) | δ ([1]; unit not given) | Measured O2 Solubility [2] | BP ([1]; 735mm) | D [1] | V [1] | δ [1] | BP ([1]; 750mm) | 3M solubility data (Literature Values) [3] |
| --- | --- | --- | --- | --- | --- | --- | --- | --- | --- | --- | --- |
| CCOC(=O)CC(C(F)(F)F)(C(F)(F)F)C(F)(F)F | 53 °C | 1.4895 | 205.5 | 7.39 | 34.4 cc O2 /100 cc FC |  |  |  |  |  |  |
| FC(F)(F)C(=C(C(F)(C(F)(F)F)C(F)(F)F)C(F)(C(F)(F)F)C(F)(F)F)C(F)(F)F |  | 1.820 | 219.8 | 6.4 | 39.5 cc O2 /100 cc FC | 110 °C |  |  |  |  |  |
| CCCCC(C(F)(F)F)(C(F)(F)F)C(F)(F)F [(CF3)3 C(CH2)3 CH3] |  |  |  |  | 41.2 cc O2 /100 cc FC |  | 1.393 g/cc | 198.3 cc/mole | 5.98 Hb | 101.5 °C |  |
| C=CCC(C(F)(F)F)(C(F)(F)F)C(F)(F)F [(CF3)3 CCH2 CHCH2] |  | 1.442 | 180.31 | 6.0 | 48 cc O2 /100 cc FC | 76 °C |  |  |  |  |  |
| FC(F)(F)C(F)(F)C(F)(F)C(F)(F)N(C(F)(F)C(F)(F)C(F)(F)C(F)(F)F)C(F)(F)C(F)(F)C(F)(F)C(F)(F)F [(n-C4 F9)3 N(FC-43), reference compound] |  |  |  |  | 36.8 cc O2 /100 cc FC |  |  |  |  |  | 38.9 cc O2 /100ccFC |
